# Assay results taken from US6555523B1, “Use of cirsiliol and derivatives to treat infections” (priority 1999, dated 2003).
# Values joined by “and” are separate entries in the source; they are usually repeats but may differ in a detail not shown here. Equal values may be shown once.
# Key:
# [1] = tested on: T, gondii RH; test: In-vitro anti Toxoplasma gondii activity in HFF, Protocol C; type: cell-based
# Method: Protocol C—In-vitro testing of anti Toxoplasma gondii activity of Cirsiliol and Naringin. The compounds were tested in an in vitro cell culture assay utilizing human fibroblasts (HFF line) as the host cell. RH strain Toxoplasma gondii that has been transfected with β-galactosidase as a marker for quantitative detection of parasite number (RH Bgal), was used as the challenge organism. The compounds ere dissolved, and then diluted in cell culture medium at least 100 fold for the assays. Controls containing the maximum concentration of solvent used in the assay were run with each test. The active drugs were added and the monolayers were infected immediately at the beginning of each test. Extracellular T. gondii were removed by rinsing the monolayer, and infected host cells remained in contact with the cells for the entire test period. Each test was terminated when at least four parasite doublings could be visually identified in the control monolayers, and parasite numbers were quantitated by standard colorimetric assay for bet galactosidase activity with optical density at 550 nm as the readout. The optical density in this assay has a direct and linear correlation with parasite numbers over a 5-log parasite concentration. Toxicity in the host cells was determined by inspection for cytopathic effects and visual evaluation of cell growth.
# [2] = Human HCV clinical trial, one patient (HCV and HIV infected), naringin 4 g orally three times daily: bloodwork and urine values; type: in vivo; conditions: for Basophils: Day 0: 0; for Basophils / Eosinophils: ref. 0-5%; for Creatinine: Day 0: 0.5, ref. 0.5-1.2; for Eosinophils: Day 0: 1; for WBC: Day 0: 3.2, ref. 4-11 × 10^3; for RBC: Day 0: 4.7, ref. 3.9-5.1 × 10^6; for Monocytes: Day 0: 5, ref. 0-10%; for Hemoglobin: Day 0: 14, ref. 13.0-17.0; for Lymphocytes: Day 0: 29, ref. 15-50%; for MCH: Day 0: 30; for MCHC: Day 0: 34, ref. 32-36%; for Hematocrit: Day 0: 41.7, ref. 36-46%; for Glucose: Day 0: 76; for SGOT: Day 0: 83; for Platelet Count: Day 0: 96, ref. 150-400 × 10^3; for SGPT: Day 0: 112; for Specific Gravity: ref. 1.005-1.035; for pH: ref. 4.5-7.5; for Acetone, Urine / Bilirubin / Glucose, Urine / Leukocyte esterase / Nitrite / Occult Blood / Protein, Urine: ref. Negative
# Method: (§1) Human HCV clinical trial. A human patient suffering from hepatitis C virus was treated according to the following regimen: initial dosing beginning on Day 0 (see Table C), three times daily, the patient ingested 4 g of naringin orally, and then drank hot tea; in later days, the patient ingested, three times daily, 4 g of naringin mixed in hot tea. This patient also suffered from HIV infection.
# (§2) The tables below, labeled part 1 through part 4, show data from this patients' bloodwork on Day 0 (when treatment according to this invention was initiated), Day 3 (3 days after Day 0), Day 6 (6 days after Day 0) and Day 9 (9 days after Day 0). In addition, the tables include data from this patients' bloodwork 72 days before Day 0 (“Day −72”).
# [3] = tested on: hepatitis C virus; test: Human HCV clinical trial, one patient (HCV and HIV infected), naringin 4 g orally three times daily: hepatitis C RNA; type: in vivo; conditions: for Hepatitis C by PCR log 10: Day 0: 6.5; for Hepatitis C RNA ultraquant: Day 0: 2,871,300, ref. <200
# Method: as §1, §2
# [4] = Drug cytotoxicity by XTT in monocyte-macrophages, Protocol D2; type: cell-based; conditions: human; macrophage; D2; naringin solubilised in 35% EtOH; read-out: TC50
# Method: Protocol D2—Assay in fresh human monocyte-macrophages. […] The cells are placed in a 96-well microtiter plate at 37° C. for 2 hours. Non-adherent cells are removed by vigorously washing six times. […] The cultures are carefully monitored for confluency during this incubation period. Infection of the cells is performed with monocytotropic HIV-1 isolates. […] Monocytemacrophage monolayers are infected at a multiplicity of infection (“MOI”) of 0.1.
# (§3) At 2 days post-infection, the medium is decanted and the cultures washed twice with complete medium in order to remove excess virus. Fresh medium alone or medium containing the appropriate concentration of drug is added and incubation continued for an additional five days. XTT staining for cytotoxicity and HIV p24 ELISA assays for production of p24 core antigen are performed on Day 7 post infection. This is performed according the ELISA kit assay manufacturers recommendations. Control curves are generated in each assay to accurately quantitate the amount of capsid protein in each sample. Data is obtained by spectrophotometric analysis at 450 nm using a Molecular Devices Vmax plate reader. P24 concentrations are calculated form the optical density values by use of the Molecular Device software package Soft Max.
# [5] = tested on: Bovine Viral Diarrhea Virus; test: Plaque formation by Bovine Viral Diarrhea Virus in MDBK cultures; type: cell-based, bovine viral diarrhea virus (BVDV); conditions: for Number of plaques: Tests 1-3, control 68; for % Reduction: plaques
# Method: HCV in vitro assays. No well-accepted model exists for HCV and new compounds for use in the treatment of HCV are frequently tested for activity against bovine viral diarrhea virus (BVDV), a virus which is related to HCV.
# A representative compound according to the present invention, naringin (i.e., 7-neohesperidoside, 5, 4′ dihydroxyflavanone) was tested for anti-BVDV activity in MDBK cells.
# [6] = tested on: parainfluenza HA-1; test: CPE-inhibition (microscopic) assay, Protocol A2; type: cell-based, parainfluenza virus; conditions: HEp-2, cell Hep2 (cell blank for 3-(4′-bromophenyl) coumarin)
# [7] = tested on: HIV Ba-L; test: Anti-HIV assay in fresh human monocyte-macrophages (p24 ELISA), Protocol D2; type: cell-based; conditions: Human immunodeficiency virus 1, BAL, Macrophage
# Method: Protocol D2—Assay in fresh human monocyte-macrophages. […] The cells are placed in a 96-well microtiter plate at 37° C. for 2 hours. Non-adherent cells are removed by vigorously washing six times. […] The cultures are carefully monitored for confluency during this incubation period. Infection of the cells is performed with monocytotropic HIV-1 isolates. High titer pools of each of these viruses are harvested from infected cultures of peripheral blood adherent cells and frozen in 1.0 ml aliquots at −80° C. Monocytemacrophage monolayers are infected at a multiplicity of infection (“MOI”) of 0.1.
# as §3
# Most of the values were based on average values that were obtained from duplicate or triplicate assay wells.
# [8] = in vitro; conditions: human
# [9] = tested on: MDBK cells; conditions: cattle
# Method: As a comparison, similar tests were conducted using ribavirin.
compound,measurement,setting,value
"C[C@@H]1O[C@@H](O[C@H]2[C@H](Oc3cc(O)c4c(c3)O[C@H](c3ccc(O)cc3)CC4=O)O[C@H](CO)[C@@H](O)[C@@H]2O)[C@H](O)[C@H](O)[C@H]1O [Naringin, 7-neohesperidoside, 5, 4′ dihydroxyflavanone]",IC50,[1],> 100 µM
same,Appearance,[2]; Day 3,Clear
same,Color,[2]; Day 3,Yellow
same,Basophils,[2]; Day 3,1%
same,Creatinine,[2]; Day 3,0.5 mg/dL
same,Eosinophils,[2]; Day 3,0%
same,WBC,[2]; Day 3,3.3 × 10^3 /mm^3
same,RBC,[2]; Day 3,4.71 × 10^6 /mm^3
same,Monocytes,[2]; Day 3,10%
same,Hemoglobin,[2]; Day 3,13.9 g/dL
same,Lymphocytes,[2]; Day 3,25%
same,MCH,[2]; Day 3,30 picograms
same,MCHC,[2]; Day 3,34%
same,Hematocrit,[2]; Day 3,40.5%
same,Glucose,[2]; Day 3,98 mg/dL
same,SGOT,[2]; Day 3,62 u/L
same,Platelet Count,[2]; Day 3,104 × 10^3 /mm^3
same,SGPT,[2]; Day 3,102 u/L
same,Specific Gravity,[2]; Day 3,1.024
same,pH,[2]; Day 3,5
same,"Acetone, Urine",[2]; Day 3,Negative
same,Bilirubin,[2]; Day 3,Negative
same,"Glucose, Urine",[2]; Day 3,Negative
same,Leukocyte esterase,[2]; Day 3,Negative
same,Nitrite,[2]; Day 3,Negative
same,Occult Blood,[2]; Day 3,Negative
same,"Protein, Urine",[2]; Day 3,Negative
same,Appearance,[2]; Day 6,Clear
same,Basophils,[2]; Day 6,1%
same,Creatinine,[2]; Day 6,0.5 mg/dL
same,Eosinophils,[2]; Day 6,1%
same,WBC,[2]; Day 6,3.4 × 10^3 /mm^3
same,RBC,[2]; Day 6,4.6 × 10^6 /mm^3
same,Monocytes,[2]; Day 6,6%
same,Hemoglobin,[2]; Day 6,13.7 g/dL
same,Lymphocytes,[2]; Day 6,28%
same,MCH,[2]; Day 6,30 picograms
same,MCHC,[2]; Day 6,34%
same,Hematocrit,[2]; Day 6,40.1%
same,Glucose,[2]; Day 6,93 mg/dL
same,SGOT,[2]; Day 6,38 u/L
same,Platelet Count,[2]; Day 6,112 × 10^3 /mm^3
same,SGPT,[2]; Day 6,62 u/L
same,Specific Gravity,[2]; Day 6,1.017
same,pH,[2]; Day 6,6
same,"Acetone, Urine",[2]; Day 6,Negative
same,Bilirubin,[2]; Day 6,Negative
same,"Glucose, Urine",[2]; Day 6,Negative
same,Leukocyte esterase,[2]; Day 6,Negative
same,Nitrite,[2]; Day 6,Negative
same,Occult Blood,[2]; Day 6,Negative
same,"Protein, Urine",[2]; Day 6,Negative
same,patient's SGOT values,[2]; summary in words,drastic reduction
same,patient's SGPT values,[2]; summary in words,drastic reduction
same,Hepatitis C by PCR log 10,[3]; Day 3,6.2
same,Hepatitis C RNA ultraquant,[3]; Day 3,"1,500,900 copies/mL"
same,Hepatitis C by PCR log 10,[3]; Day 6,5.5
same,Hepatitis C RNA ultraquant,[3]; Day 6,"340,540 copies/mL"
same,Hepatitis C by PCR log 10,[3]; Day 9,4.9
same,Hepatitis C RNA ultraquant,[3]; Day 9,"78,592 copies/mL"
same,patient's hepatitis C PCR values,"[3]; summary in words, Day 0 to Day 9",drastic reduction
same,CC50 at 7 days,[4],> 100 µM
same,ID50,"[5]; BVDV plaque formation in MDBK, table footnote, unit from the table's concentration head",631.39 mg/L
same,Number of plaques,[5]; naringin 31.25 μg/mL,65 and 75 and 60
same,Number of plaques,[5]; naringin 62.50 μg/mL,57 and 65
same,Number of plaques,[5]; naringin 125.00 μg/mL,52 and 65 and 61
same,Number of plaques,[5]; naringin 250.00 μg/mL,50 and 58 and 52
same,Number of plaques,[5]; naringin 500.00 μg/mL,32 and 45 and 42
same,Number of plaques,[5]; naringin 1000.00 μg/mL,22 and 25 and 14
same,Number of plaques,[5]; naringin 1500.00 μg/mL,8 and 11
same,Number of plaques,[5]; naringin 2000.00 μg/mL,4 and 3
same,% Reduction,[5]; naringin 31.25 μg/mL,2.39%
same,% Reduction,[5]; naringin 62.50 μg/mL,12.64%
same,% Reduction,[5]; naringin 125.00 μg/mL,13.12%
same,% Reduction,[5]; naringin 250.00 μg/mL,21.91%
same,% Reduction,[5]; naringin 500.00 μg/mL,41.92%
same,% Reduction,[5]; naringin 1000.00 μg/mL,70.22%
same,% Reduction,[5]; naringin 1500.00 μg/mL,86.82%
same,% Reduction,[5]; naringin 2000.00 μg/mL,95.11%
same,IC50,[6],25 µM
same,IC50,"[7]; D2, naringin solubilised in 35% EtOH",86.2 µM
same,IC50,"[7]; D2, naringin solubilised in 95% EtOH",> 100 µM
same,CC50,[8],100 µM
same,MTC (minimum cytotoxic drug concentration),[9],> 2000 µg/mL
